Measurements reported in US20090227606A1, “Methods for Preventing or Treating Acute and Chronic Pain” (priority 2006, published 2009).
Entries after “also recorded” stand apart in the source; their conditions may differ.

Key:
GLT-1 mRNA = assay: Real Time RT-PCR of ipsilateral lumbar spinal cord, GLT-1 mRNA; format: in vivo, rat; details: daily intrathecal
Description: Tissue was collected from 4-5 rats/group on postoperative days 4 or 12. In order to obtain both mRNA and protein from the same tissue sample, the L5 region of the spinal cord (ipsilateral to the injury), was isolated and placed in PBS supplemented with protease inhibitor cocktail (1:1000, Sigma Chemical Co., St. Louis, Mo.) and RNase inhibitor (0.75 U/μL Ambion, Austin, Tex.). Samples were sonicated in five one-second bursts at half-maximal power, centrifuged at 6500 rpm for 15 minutes at 4° C. Protein-containing supernatants were collected and stored at −80° C. until further processing by Western blot analysis. […]
Real time RT-PCR reactions were carried out in a total reaction volume of 25 μL containing a final concentration of 1.5 U Platinum Taq DNA polymerase (Invitrogen Corporation, Carlsbad, Calif.); 20 mM Tris HCl (pH 8.4); 50 mM KCl; 3 mM MgCl2; 200 μM dGTP, dCTP, and dATP; 400 μM dUTP and 1 U of UDG (uracyl DNA glycosylase); 900 nM of forward and reverse primers; 300 nM Taqman probe; and 5 μL of a 10-fold dilution of cDNA (50 ng) from the RT step. The iCycler™ Multicolor Real-Time PCR detection system (Bio-Rad, Hercules, Calif.) was used to quantify PCR product. […] The relative fold change from control was then expressed by calculation of 2^−ΔΔC^T for each sample and the results are expressed as the group mean fold change±SEM.

GLAST = assay: Immunohistochemistry of rat lumbar spinal cord, GLAST; format: in vivo; details: day 12 post-transection, ipsilateral side
Description: For assessment of GFAP, GLT-1 and GLAST immunoreactivity, a separate group of rats (n=4/treatment) were anesthetized and transcardially perfused with 0.1 M PBS (phosphate-buffered saline), pH 7.4, followed by 4% paraformaldehyde in PBS on day 12 post-L5 spinal nerve transection. Lumbar spinal cord sections were identified, isolated, and processed as described previously (Colburn, R. W. et al. 1997. J. Neuroimmunol. 79:163-175). Free-floating, […] were cut in a cryostat and processed for immunofluorescence. Sections were blocked with 5% FBS/0.1% Triton-X 100 for 1 hour at room temperature (RT). For double immunofluorescence, spinal sections were incubated with a mixture of rabbit polyclonal anti-GLT-1 (1:500) or guinea pig anti-GLAST (1:5000, Chemicon, Temecula, Calif.), and mouse anti-GFAP G-A-5 (astrocyte marker, 1:400, Sigma Chemical Co., St. Louis, Mo.) in 3% FBS/0.1% triton-X 100/TBS over night at 4° C., washed, incubated in a mixture of goat anti-rabbit Alexa Fluor™-555 and goat anti-mouse Alexa Fluor™-488 (1:250, Molecular Probes, Eugene, Oreg.) secondary antibodies in 3% FBS/0.1% triton-X 100/TBS for 1 hour at RT. To control for nonspecific staining, control sections were incubated in the absence of primary antibodies. The sections were examined with a fluorescence microscope, and images were captured with a Q-Fire cooled camera. […]

GFAP = GFAP expression in mouse spinal cord dorsal horn; format: in vivo; details: dorsal horn upper laminae, day 12, 10 mg/kg i.p. daily
Description: With these in vivo data collected, further experiments were performed in the transgenic mice to more clearly define the effects of propentofylline treatment on GLT-1 and GLAST in the spinal cord. As discussed above, following in vivo testing, mice were transcardially perfused and tissue was fixed with paraformaldehyde. Lumbar spinal cord sections were identified and post-fixed in paraformaldehyde. After one week in sucrose to prevent freeze fracture, spinal cord segments were frozen in dry ice, mounted and prepared with cryostat sectioning. Sections were then subjected to immunohistochemical analysis. […] In order to quantitate the relative number of eGFP (marker for GLT-1) or DsRed (marker for GLAST) puncta in each spinal cord dorsal horn, images using a fluorescence microscope were taken with a Q-Fire cooled camera (397 ms exposure). […] An observer blind to the treatment groups was used to count the relative number of GLT-1 or GLAST positive puncta in the ipsilateral (injured) dorsal horn versus the contralateral (non-injured) dorsal horn. […]
As described previously with rats, mice were transcardially perfused with 0.1 M PBS (phosphate-buffered saline), pH 7.4, followed by 4%-paraformaldehyde in PBS on day 12 post-L5 spinal nerve transection. […] The sections were examined with a fluorescence microscope, and images were captured with a Q-Fire cooled camera. […]

For `CCCn1cnc2c1c(=O)n(CCCCC(C)=O)c(=O)n2C` [propentofylline], the “GLT-1 mRNA in lumbar spinal cord” value (GLT-1 mRNA; day 4 post-transection) was “enhanced; also recorded: significantly increased levels of GLT-1 mRNA”, the “GLT-1 mRNA in lumbar spinal cord” value (GLT-1 mRNA; day 12 post-transection) was “enhanced; also recorded: significantly increased levels of GLT-1 mRNA” and the “GLAST immunoreactivity in dorsal horn” value (GLAST) was “did not enhance GLAST immunoreactivity on the ipsilateral side”. The “injury-induced GFAP expression” value (GFAP) was “suppressed injury-induced GFAP expression”.
